Test system: HIV
Test: Detection of viral antigen (indirect fluorescent antibody technique) in HIV-infected Molt-4 clone No. 8 cells
Type: cell-based
Procedure: The sodium salts of oligosaccharide poly-sulfate esters prepared in Preparation Examples 1 - 3 and 5 - 7 were used as test samples. Molt-4 clone No. 8 cells were infected with a virus obtained from Molt-4/HIV producing cell.
The experiment was conducted in accordance with the method of Itoh et al. described in Antiviral Research, 7 (1987), 361 - 367.
The proportions of HIV antigen positive cells were determined by an indirect fluorescent antibody technique using an anti-HIV antibody positive serum as antibody against the infected cells. The results are shown in Tables 2 and 3, in which each of the figure listed denotes the percentage of infected cells taken by HIV antigen positive cells.

[1] = Table 3, amount of sample added 7.8 µg/ml
[2] = Table 3, amount of sample added 32 µg/ml
[3] = Table 3, amount of sample added 125 µg/ml
[4] = Table 3, amount of sample added 500 µg/ml
[5] = Table 3, amount of sample added 1000 µg/ml

| Substance | percentage of infected cells taken by HIV antigen positive cells [1] | percentage of infected cells taken by HIV antigen positive cells [2] | percentage of infected cells taken by HIV antigen positive cells [3] | percentage of infected cells taken by HIV antigen positive cells [4] | percentage of infected cells taken by HIV antigen positive cells [5] |
| --- | --- | --- | --- | --- | --- |
| sodium salt of maltoheptaose sulfate ester [compound 7] | 18.2% | 4.8% | 4.4% | 4.1% | 3.2% |
| sodium salt of maltohexaose sulfate ester [compound 5] | 20.3% | 5.3% | 5.8% | 3.6% | 4.4% |
| sodium salt of maltopentaose sulfate ester [compound 6] | 24.1% | 6.4% | 6.0% | 4.4% | 4.6% |

From patent publication EP0338092A1, “ANTI-HIV AGENT” (Chugai Seiyaku Kabushiki Kaisha, priority 1987, dated 1989)
